Experimental data from US10717733B2, “Haloallylamine indole and azaindole derivative inhibitors of lysyl oxidases and uses thereof” (PHARMAXIS LTD., priority 2016, dated 2020).
Structures can show the parent of a compound that is named as a salt.

How the values were obtained:
Assay type in all cases: biochemical
Recombinant human MAO-B = Recombinant human MAO-B (Homo sapiens (Human), UniProt P27338); test: Inhibition of human recombinant MAO-B; details: benzylamine 100 μM
Summary of the method: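 Recombinant human MAO-B used as enzyme source (0.06 mg/mL, stated concentration). Run as for the human SSAO/VAP-1 assay, except benzylamine substrate at 100 μM.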

[1] = molecular target: human recombinant SSAO/VAP-1 (Homo sapiens (Human), UniProt Q16853); test: Inhibition of human recombinant SSAO/VAP-1 amine oxidase activity; details: 30 min preincubation at 37° C., 600 μM benzylamine
human recombinant SSAO/VAP-1, sequence (Q16853 34-763): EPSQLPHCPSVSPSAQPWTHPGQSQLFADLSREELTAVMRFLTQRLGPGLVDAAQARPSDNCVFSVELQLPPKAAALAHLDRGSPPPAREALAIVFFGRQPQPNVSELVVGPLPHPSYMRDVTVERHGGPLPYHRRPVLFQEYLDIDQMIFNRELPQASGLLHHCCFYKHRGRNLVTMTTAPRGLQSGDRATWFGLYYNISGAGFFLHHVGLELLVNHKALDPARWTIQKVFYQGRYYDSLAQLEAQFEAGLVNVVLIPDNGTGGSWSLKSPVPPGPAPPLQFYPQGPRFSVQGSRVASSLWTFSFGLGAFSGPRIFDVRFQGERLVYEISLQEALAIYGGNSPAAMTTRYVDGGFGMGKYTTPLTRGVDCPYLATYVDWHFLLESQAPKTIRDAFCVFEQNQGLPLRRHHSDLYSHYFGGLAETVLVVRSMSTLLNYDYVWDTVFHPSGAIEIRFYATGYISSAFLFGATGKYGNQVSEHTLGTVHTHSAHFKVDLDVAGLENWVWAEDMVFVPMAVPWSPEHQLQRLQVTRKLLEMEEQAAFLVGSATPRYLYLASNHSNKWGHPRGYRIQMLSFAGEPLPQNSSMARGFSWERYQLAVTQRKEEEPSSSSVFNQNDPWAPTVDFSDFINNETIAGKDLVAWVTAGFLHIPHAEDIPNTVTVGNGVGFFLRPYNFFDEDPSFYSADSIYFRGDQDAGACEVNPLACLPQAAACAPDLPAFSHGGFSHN
Summary of the method: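 Purified SSAO/VAP-1 (residues 34-763, expressed in CHO Lec 8 cells; 0.25 μg/mL) preincubated 30 min at 37° C with compound in 0.1 M sodium phosphate pH 7.4. Reaction mix of 600 μM benzylamine, 120 μM Amplex Red and 1.5 U/mL HRP added; fluorescence (ex 565/em 590 nm) read every 2.5 min for 30 min; IC50 from kinetic slopes over 4-11 point curves.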

Bovine LOX = Bovine LOX (Bos taurus (Bovine), UniProt P33072); test: LOX inhibition, peroxidase-coupled Amplex Red amine oxidase assay; details: 30 min preincubation at 37° C., putrescine substrate
Bovine LOX, sequence (P33072 170-418): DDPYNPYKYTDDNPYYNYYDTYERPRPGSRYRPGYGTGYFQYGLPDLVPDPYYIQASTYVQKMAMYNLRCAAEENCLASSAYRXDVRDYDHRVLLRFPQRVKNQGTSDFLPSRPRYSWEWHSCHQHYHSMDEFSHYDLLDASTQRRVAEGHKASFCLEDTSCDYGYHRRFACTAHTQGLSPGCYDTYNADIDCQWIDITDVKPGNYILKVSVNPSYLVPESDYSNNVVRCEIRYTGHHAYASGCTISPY
Summary of the method: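 Bovine LOX in 1.2 M urea, 50 mM sodium borate pH 8.2 with 1 μM mofegiline and 0.5 mM pargyline; putrescine at twice KM (e.g. 20 mM for LOX) with Amplex Red/HRP. Fluorescence (ex 565/em 590 nm) read kinetically over 30 min at 37–45 °C; IC50 from slopes.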

Human LOXL2 = Human LOXL2 (Homo sapiens (Human), UniProt Q9Y4K0); test: LOXL2 inhibition, peroxidase-coupled Amplex Red amine oxidase assay; details: 30 min preincubation at 37° C., putrescine substrate
Human LOXL2, sequence (Q9Y4K0 26-774): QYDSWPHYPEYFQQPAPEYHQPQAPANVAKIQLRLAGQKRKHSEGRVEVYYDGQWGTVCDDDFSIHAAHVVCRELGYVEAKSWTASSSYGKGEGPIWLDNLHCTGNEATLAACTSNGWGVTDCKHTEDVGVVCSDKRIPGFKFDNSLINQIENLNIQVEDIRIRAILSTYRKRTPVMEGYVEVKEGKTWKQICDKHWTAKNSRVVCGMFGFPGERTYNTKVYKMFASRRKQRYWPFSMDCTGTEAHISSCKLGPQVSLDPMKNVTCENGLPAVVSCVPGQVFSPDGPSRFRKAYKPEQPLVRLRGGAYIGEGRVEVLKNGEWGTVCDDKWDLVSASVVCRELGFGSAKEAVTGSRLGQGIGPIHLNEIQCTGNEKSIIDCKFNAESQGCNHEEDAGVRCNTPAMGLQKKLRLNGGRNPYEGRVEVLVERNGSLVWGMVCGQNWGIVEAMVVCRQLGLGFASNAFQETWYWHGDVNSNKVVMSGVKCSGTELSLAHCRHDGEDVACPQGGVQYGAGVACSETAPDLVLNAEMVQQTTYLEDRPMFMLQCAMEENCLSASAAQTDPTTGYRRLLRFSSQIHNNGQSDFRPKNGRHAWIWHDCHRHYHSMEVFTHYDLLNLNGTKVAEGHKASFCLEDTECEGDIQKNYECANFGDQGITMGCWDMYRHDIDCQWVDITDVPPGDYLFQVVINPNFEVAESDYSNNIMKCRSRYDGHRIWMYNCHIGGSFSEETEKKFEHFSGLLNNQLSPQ
Summary of the method: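 Enzyme in 1.2 M urea, 50 mM sodium borate pH 8.2 with 1 μM mofegiline and 0.5 mM pargyline, preincubated 30 min at 37° C with compound (11-point CRC). Putrescine at twice KM (10 mM for LOXL2) with Amplex Red/HRP; fluorescence (ex 565, em 590) read kinetically 30 min; IC50 from slopes.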

Recombinant human MAO-B, sequence (P27338 whole entry): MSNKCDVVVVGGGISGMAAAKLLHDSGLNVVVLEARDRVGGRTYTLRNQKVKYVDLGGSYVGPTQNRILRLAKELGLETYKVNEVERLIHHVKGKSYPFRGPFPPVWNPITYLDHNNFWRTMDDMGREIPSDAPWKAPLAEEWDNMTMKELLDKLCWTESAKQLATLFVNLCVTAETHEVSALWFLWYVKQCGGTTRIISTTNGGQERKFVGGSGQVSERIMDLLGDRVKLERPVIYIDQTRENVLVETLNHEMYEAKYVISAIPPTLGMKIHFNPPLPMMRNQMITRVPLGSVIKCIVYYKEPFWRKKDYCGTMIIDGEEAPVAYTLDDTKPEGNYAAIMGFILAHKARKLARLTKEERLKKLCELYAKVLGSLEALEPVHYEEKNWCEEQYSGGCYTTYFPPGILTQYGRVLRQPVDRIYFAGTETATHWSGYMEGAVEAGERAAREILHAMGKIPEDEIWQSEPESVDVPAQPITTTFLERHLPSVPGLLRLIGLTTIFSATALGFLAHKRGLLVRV

Row | SMILES | IC50 (Recombinant human MAO-B) | IC50 [1] | IC50 (Bovine LOX) | IC50 (Human LOXL2)
1 | Cc1c(-c2cccc(S(=O)(=O)N(C)C)c2)c2cc(O)ccc2n1C/C(F)=C/CN [Compound 37, (Z)-3-(1-(4-amino-2-fluorobut-2-en-1-yl)-5-hydroxy-2-methyl-1H-indol-3-yl)-N,N-dimethylbenzenesulfonamide] | > 3 µM | > 3 µM | > 0.3 µM | < 0.3 µM
2 | Cc1c(-c2cccc(N(C)S(C)(=O)=O)c2)c2cc(C(=O)O)ccc2n1C/C(F)=C/CN [Compound 38, (Z)-1-(4-amino-2-fluorobut-2-en-1-yl)-2-methyl-3-(3-(N-methylmethylsulfonamido)phenyl)-1H-indole-5-carboxylic acid] | > 3 µM | > 3 µM | > 0.3 µM | < 0.3 µM
3 | Cc1c(-c2cccc(N(C)S(C)(=O)=O)c2)c2cc(C(=O)N(C)C)ccc2n1C/C(F)=C/CN [Compound 39, (Z)-1-(4-amino-2-fluorobut-2-en-1-yl)-N,N,2-trimethyl-3-(3-(N-methylmethylsulfonamido)phenyl)-1H-indole-5-carboxamide] | > 3 µM | > 3 µM | > 0.3 µM | < 0.3 µM
4 | Cc1c(-c2cncc(S(=O)(=O)N(C)C)c2)c2cc(C(=O)O)ccc2n1C/C(F)=C/CN [Compound 40, (Z)-1-(4-amino-2-fluorobut-2-en-1-yl)-3-(5-(N,N-dimethylsulfamoyl)pyridin-3-yl)-2-methyl-1H-indole-5-carboxylic acid] | > 3 µM | > 3 µM | > 0.3 µM | < 0.3 µM
5 | Cc1c(-c2cncc(S(=O)(=O)N(C)C)c2)c2cc(C(=O)N(C)C)ccc2n1C/C(F)=C/CN [Compound 41, (Z)-1-(4-amino-2-fluorobut-2-en-1-yl)-3-(5-(N,N-dimethylsulfamoyl)pyridin-3-yl)-N,N,2-trimethyl-1H-indole-5-carboxamide] | > 3 µM | > 3 µM | > 0.3 µM | < 0.3 µM
6 | CCOC(=O)c1ccc2c(n1)c(-c1cccc(S(=O)(=O)N(C)C)c1)c(C)n2C/C(F)=C/CN [Compound 42, (Z)-ethyl 1-(4-amino-2-fluorobut-2-en-1-yl)-3-(3-(N,N-dimethylsulfamoyl)phenyl-2-methyl-1H-pyrrolo[3,2-b]pyridine-5-carboxylate, Dihydrochloride] | > 3 µM | > 3 µM | > 0.3 µM | < 0.3 µM
7 | Cc1c(-c2cccc(S(=O)(=O)N(C)C)c2)c2nc(C(=O)O)ccc2n1C/C(F)=C/CN [Compound 43, (Z)-1-(4-amino-2-fluorobut-2-en-1-yl)-3-(3-(N,N-dimethylsulfamoyl)phenyl)-2-methyl-1H-pyrrolo[3,2-b]pyridine-5-carboxylic acid] | > 3 µM | > 3 µM | > 0.3 µM | < 0.3 µM
8 | Cc1c(-c2cccc(S(=O)(=O)N(C)C)c2)c2nc(C(=O)N(C)C)ccc2n1C/C(F)=C/CN [Compound 44, (Z)-1-(4-amino-2-fluorobut-2-en-1-yl)-3-(3-(N,N-dimethylsulfamoyl)phenyl)-N,N,2-trimethyl-1H-pyrrolo[3,2-b]pyridine-5-carboxamide] | > 3 µM | > 3 µM | > 0.3 µM | < 0.3 µM
9 | Cc1c(-c2cccc(S(=O)(=O)N(C)C)c2)c2nc(C(=O)NC(C)C)ccc2n1C/C(F)=C/CN [Compound 45, (Z)-1-(4-amino-2-fluorobut-2-en-1-yl)-3-(3-(N,N-dimethylsulfamoyl)phenyl)-N-isopropyl-2-methyl-1H-pyrrolo[3,2-b]pyridine-5-carboxamide] | > 3 µM | > 3 µM | > 0.3 µM | < 0.3 µM
10 | CNC(=O)c1ccc2c(n1)c(-c1cccc(S(=O)(=O)N(C)C)c1)c(C)n2C/C(F)=C/CN [Compound 46, (Z)-1-(4-amino-2-fluorobut-2-en-1-yl)-3-(3-(N,N-dimethylsulfamoyl)phenyl)-N,2-dimethyl-1H-pyrrolo[3,2-b]pyridine-5-carboxamide] | > 3 µM | > 3 µM | > 0.3 µM | < 0.3 µM
11 | Cc1c(-c2cccc(S(=O)(=O)N(C)C)c2)c2cccc(C(=O)N(C)C)c2n1C/C(F)=C/CN [Compound 47, (Z)-1-(4-amino-2-fluorobut-2-en-1-yl)-3-(3-(N,N-dimethylsulfamoyl)phenyl)-N,N,2-trimethyl-1H-indole-7-carboxamide] | > 3 µM | > 3 µM | > 0.3 µM | < 0.3 µM
12 | Cc1c(-c2cccc(S(=O)(=O)N(C)C)c2)c2cccc(C(=O)O)c2n1C/C(F)=C/CN [Compound 48, (Z)-1-(4-amino-2-fluorobut-2-en-1-yl)-3-(3-(N,N-dimethylsulfamoyl)phenyl)-2-methyl-1H-indole-7-carboxylic acid] | > 3 µM | > 3 µM | > 0.3 µM | < 0.3 µM
13 | COc1ccc2c(c1)c(-c1cccc(S(=O)(=O)N(C)C)c1)c(C)n2C/C(F)=C/CN [Compound 49, (Z)-3-(1-(4-amino-2-fluorobut-2-en-1-yl)-5-methoxy-2-methyl-1H-indol-3-yl)-N,N-dimethylbenzenesulfonamide] | > 3 µM | > 3 µM | > 0.3 µM | < 0.3 µM
14 | Cc1c(-c2cccc(S(C)(=O)=O)c2)c2cc(C(=O)N(C)C)ccc2n1C/C(F)=C/CN [Compound 50, (Z)-1-(4-amino-2-fluorobut-2-en-1-yl)-N,N,2-trimethyl-3-(3-(methylsulfonyl)phenyl)-1H-indole-5-carboxamide] | > 3 µM | > 3 µM | > 0.3 µM | < 0.3 µM
15 | Cc1c(-c2cccc(S(=O)(=O)N(C)C)c2)c2cc(C#N)ccc2n1C/C(F)=C/CN [Compound 51, (Z)-3-(1-(4-amino-2-fluorobut-2-en-1-yl)-5-cyano-2-methyl-1H-indol-3-yl)-N,N-dimethylbenzenesulfonamide] | > 3 µM | > 3 µM | > 0.3 µM | < 0.3 µM
16 | Cc1c(-c2cccc(S(N)(=O)=O)c2)c2cc(C(=O)N(C)C)ccc2n1C/C(F)=C/CN [Compound 54, (Z)-1-(4-amino-2-fluorobut-2-en-1-yl)-N,N,2-trimethyl-3-(3-sulfamoylphenyl)-1H-indole-5-carboxamide] | > 3 µM | > 3 µM | > 0.3 µM | < 0.3 µM
17 | Cc1c(-c2cccc(S(=O)(=O)N(C)C)c2)c2cc(-c3ncon3)ccc2n1C/C(F)=C/CN [Compound 55, (Z)-3-(1-(4-amino-2-fluorobut-2-en-1-yl)-2-methyl-5-(1,2,4-oxadiazol-3-yl)-1H-indol-3-yl)-N,N-dimethylbenzenesulfonamide] | > 3 µM | > 3 µM | > 0.3 µM | < 0.3 µM
18 | Cc1c(-c2cccc(C(F)(F)F)c2)c2cc(C(=O)N(C)C)ccc2n1C/C(F)=C/CN [Compound 56, (Z)-1-(4-amino-2-fluorobut-2-en-1-yl)-N,N,2-trimethyl-3-(3-(trifluoromethyl)phenyl)-1H-indole-5-carboxamide] | > 3 µM | > 3 µM | > 0.3 µM | < 0.3 µM
19 | Cc1c(-c2cccc(S(=O)(=O)C(F)(F)F)c2)c2cc(C(=O)N(C)C)ccc2n1C/C(F)=C/CN [Compound 57, (Z)-1-(4-amino-2-fluorobut-2-en-1-yl)-N,N,2-trimethyl-3-(3-((trifluoromethyl)sulfonyl)phenyl)-1H-indole-5-carboxamide] | > 3 µM | > 3 µM | > 0.3 µM | < 0.3 µM
20 | Cc1c(-c2cccc(S(=O)(=O)N(C)C)c2)c2cc(S(=O)(=O)N(C)C)ccc2n1C/C(F)=C/CN [Compound 58, (Z)-1-(4-amino-2-fluorobut-2-en-1-yl)-3-(3-(N,N-dimethylsulfamoyl)phenyl)-N,N,2-trimethyl-1H-indole-5-sulfonamide] | > 3 µM | > 3 µM | > 0.3 µM | < 0.3 µM
21 | Cc1c(-c2cccc(S(=O)(=O)N(C)C)c2)c2cc(C(F)F)ccc2n1C/C(F)=C/CN [Compound 59, (Z)-3-(1-(4-amino-2-fluorobut-2-en-1-yl)-5-(difluoromethyl)-2-methyl-1H-indol-3-yl)-N,N-dimethylbenzene-sulfonamide] | > 3 µM | > 3 µM | > 0.3 µM | < 0.3 µM
22 | Cc1c(-c2cccc(S(=O)(=O)N(C)C)c2)c2nc(O)ccc2n1C/C(F)=C/CN [Compound 60, (Z)-3-(1-(4-amino-2-fluorobut-2-en-1-yl)-5-hydroxy-2-methyl-1H-pyrrolo[3,2-b]pyridin-3-yl)-N,N-dimethylbenzenesulfonamide Hydrochloride] | > 3 µM | > 3 µM | > 0.3 µM | < 0.3 µM
23 | COc1ccc2c(n1)c(-c1cccc(S(=O)(=O)N(C)C)c1)c(C)n2C/C(F)=C/CN [Compound 61, (Z)-3-(1-(4-amino-2-fluorobut-2-en-1-yl)-5-methoxy-2-methyl-1H-pyrrolo[3,2-b]pyridin-3-yl)-N,N-dimethylbenzenesulfonamide Dihydrochloride] | > 3 µM | > 3 µM | > 0.3 µM | < 0.3 µM
